The subject of data set [1] is HepG2. Kind of data set: Antiproliferative activity against human HepG2 cells incubated by 48 hrs by MTT assay. The following applies: HepG2, 48 h. It is filed as functional, cell-based. Background: Formazan colour is commonly taken as a measure of viable cells.
In data set [2] the test system is K562. Kind of data set: Antiproliferative activity against human K562 cells incubated by 48 hrs by MTT assay. It is filed as functional, cell-based. Particulars: K562, 48 h.
The test system of data set [3] is A549. The data set can be described thus: Antiproliferative activity against human A549 cells. It is filed as functional, cell-based.
The subject of data set [4] is A549. Kind of data set: Antiproliferative activity against human A549 cells incubated by 48 hrs by MTT assay. It is filed as functional, cell-based. The following applies: A549, 48 h.
The nature of data set [5]: Antiproliferative activity against mouse MC3T3-E1 cells. Format: toxicity, cell-based.
The test system of data set [6] is Hep 3B2. Kind of data set: Anticancer activity against human Hep3B cells measured after 48 hrs. Format: functional, cell-based.
For data set [7], the system named is PC-3. Kind of data set: Antiproliferative activity against human PC-3 cells incubated by 48 hrs by MTT assay. Format: functional, cell-based. Particulars: PC-3, 48 h.
Data set [8] concerns DU-145. The data set can be described thus: Growth inhibition of human DU-145 cells assessed as reduction in cell viability. Format: functional.
The test system of data set [9] is Hep 3B2. Kind of data set: Antiproliferative activity against human Hep3B cells measured after 48 hrs by MTT assay. It is filed as functional, cell-based.
In data set [10] the test system is A549. The data set can be described thus: Antiproliferative activity against human A549 cells measured after 48 hrs. Particulars: A549, 48 h. It is filed as functional, cell-based.
The subject of data set [11] is MDA-MB-231. Kind of data set: Antiproliferative activity against human MDA-MB-231 cells measured after 48 hrs by MTT assay. It is filed as functional, cell-based. The following applies: MDA-MB-231, 48 h.
Data set [12] has as its system MDA-MB-231. Kind of data set: Antiproliferative activity against human MDA-MB-231 cells measured after 48 hrs. Format: functional, cell-based. The following applies: MDA-MB-231, 48 h.
In data set [13] the test system is A549. Kind of data set: Antiproliferative activity against human A549 cells measured after 48 hrs by MTT assay. Format: functional, cell-based. Particulars: A549, 48 h.
For data set [14], the system named is HCT-116. The data set can be described thus: Antiproliferative activity against human HCT-116 cells measured after 48 hrs. It is filed as functional, cell-based. Particulars: HCT-116, 48 h.
Data set [15] concerns HCT-116. Kind of data set: Antiproliferative activity against human HCT-116 cells measured after 48 hrs by MTT assay. Format: functional, cell-based. Particulars: HCT-116, 48 h.
The subject of data set [16] is SK-OV-3. Kind of data set: Growth inhibition of human SK-OV-3 cells assessed as reduction in cell viability. It is filed as functional.
In data set [17] the test system is NCI/ADR-RES. Kind of data set: Growth inhibition of human MCF7ADR cells assessed as reduction in cell viability. Format: functional.
In data set [18] the test system is SW-620. The data set can be described thus: Growth inhibition of human SW620 cells assessed as reduction in cell viability. Format: functional.
Data set [19] has as its system M14. Kind of data set: Growth inhibition of human M14 cells assessed as reduction in cell viability. Format: functional.
The subject of data set [20] is U-251. The data set can be described thus: Growth inhibition of human U-251 cells assessed as reduction in cell viability. It is filed as functional.
For data set [21], the system named is NCI-H522. Kind of data set: Growth inhibition of human NCI-H522 cells assessed as reduction in cell viability. Format: functional.
Data set [22] deals with A498. The data set can be described thus: Growth inhibition of human A498 cells assessed as reduction in cell viability. It is filed as functional.
For data set [23], the system named is HT-29. Kind of data set: Antiproliferative activity against human HT-29 cells. It is filed as functional, cell-based.
The nature of data set [24]: Cytotoxicity activity against human HDF cells. The following applies: HDF cells (NHDF). It is filed as toxicity, cell-based.
In data set [25] the test system is PANC-1. Kind of data set: Antiproliferative activity against human PANC-1 cells. It is filed as functional, cell-based.
Data set [26] has as its system MDA-MB-231. The data set can be described thus: Antiproliferative activity against human MDA-MB-231 cells. Format: functional, cell-based.

Structures are written as SMILES.

In ChEMBL document CHEMBL5532682, “Recent advances of tryptanthrin and its derivatives as potential anticancer agents” (RSC Med Chem, 2024) one finds IC50 and GI50 data, which are given here for 31 compounds.

As for `O=C1c2cc(F)ccc2-n2c1nc1ccccc1c2=O`, the IC50 in [1] is 1.97 µM; in data set [2], 2.66 µM; in [3], 10.9 µM; in data set [4], 2.36 µM; in [5], 97 µM; in data set [6], 4.1 µM. The compound also came in with an IC50 in data set [7] of 10.6 µM.

As to `O=c1c2ccccc2nc2n1-c1ccccc1/C2=N\OCCN1CCCC1`, in data set [8], the GI50 was determined as 2 µM.

Take `O=C1c2cc(Cl)ccc2-n2c1nc1ccccc1c2=O`: the IC50 is 2.95 µM in [1]; 3.67 µM in [2]; 3.7 µM in data set [9]; 22.6 µM in [3]; 4.21 µM in data set [4]; greater than 100 µM in data set [5]. In data set [7], this compound displayed an IC50 of 8.48 µM.

`O=C1c2ccccc2-n2c1nc1ccc(F)cc1c2=O`: the IC50 in [1] was 5.63 µM; in data set [2] it was 6.77 µM; in data set [4], 2.34 µM; in [6], greater than 20 µM; in [7], 9.7 µM.

In turn, `Cc1ccc2c(c1)C(=O)c1nc3ccccc3c(=O)n1-2` returned an IC50 in data set [6] of 6.5 µM. This lies in the single-digit micromolar range.

For the compound `O=C1c2c(N3CCCCC3)cccc2-n2c1nc1ccccc1c2=O`, the IC50 in [10], in [11], in [12], in [13], in data set [14] and in [15] was greater than 100 µM each time.

On to `O=C1c2c(N3CCOCC3)cccc2-n2c1nc1ccccc1c2=O`, for which the IC50 in data set [10] is greater than 100 µM; in [11], 56.1 µM; in data set [12], 48.3 µM; in [13], 13.7 µM; in [14] it was 1.62 µM; in data set [15], 90 µM.

`C=C[C@]1(O)c2ccccc2-n2c1nc1ccccc1c2=O`: the GI50 is 10 µM in data set [8]; 6 µM in data set [16]; 20 µM in data set [17]; 10 µM in data set [18]; 8 µM in [19].

Turning to `C[C@]1(O)c2ccccc2-n2c1nc1ccccc1c2=O`, the GI50 in data set [20], in data set [8], in data set [16], in [21], in [22] and in data set [17] was greater than 100 µM throughout. Also, the GI50 in data set [18] and in data set [19] was greater than 100 µM throughout.

For the compound `Cc1nn(Cl)c2c1[C@@]1(C(C#N)=C(N)O2)c2ccccc2-n2c1nc1ccccc1c2=O`, the IC50 in [23] was 77.4 µM; in [24], greater than 100 µM; in data set [25], 49.4 µM; in data set [26], 47.9 µM.

`O=C1c2c(N3CCN(c4ccccn4)CC3)cccc2-n2c1nc1ccccc1c2=O`: the IC50 in data set [10], in data set [11], in [12], in [13], in data set [14] and in data set [15] was greater than 100 µM in each case.

As to `O=C1c2c(ccc(F)c2N2CCN(C(=O)c3ccco3)CC2)-n2c1nc1ccccc1c2=O`, the IC50 in data set [10], in data set [11], in data set [12], in [13], in data set [14] and in data set [15] was greater than 100 µM throughout.

As for `Cc1n[nH]c2c1[C@@]1(C(C#N)=C(N)O2)c2ccccc2-n2c1nc1ccccc1c2=O`, the IC50 was 90.4 µM in data set [23], greater than 100 µM in data set [24], 21.4 µM in [25] and 60.8 µM in data set [26].

With `Cc1nn(Cl)c2c1[C@@]1(C(C#N)=CO2)c2cc(-c3cccc(Cl)c3)ccc2-n2c1nc1ccccc1c2=O`, the IC50 in [23] was greater than 100 µM; in data set [24] it was greater than 100 µM; in [25], 60.6 µM; in data set [26], 92.8 µM.

Regarding `O=C1c2cc(Br)ccc2-n2c1nc1ccc(F)cc1c2=O`, the IC50 in data set [6] came out at 5.8 µM.

`Cc1nn(Br)c2c1[C@@]1(C(C#N)=CO2)c2cc(-c3ccccc3)ccc2-n2c1nc1ccccc1c2=O`: the IC50 is greater than 100 µM in data set [23], greater than 100 µM in data set [24], 85.3 µM in data set [25] and 65.4 µM in data set [26].

In the case of `Cc1nn(Cl)c2c1[C@@]1(C(C#N)=C(N)O2)c2cc(-c3ccccc3)ccc2-n2c1nc1ccccc1c2=O`, the 50% inhibitory concentration (IC50) in data set [23] is greater than 100 µM; in data set [24] it was greater than 100 µM; in [25], greater than 100 µM; in [26], 62.8 µM.

For `O=C1c2ccccc2-n2c1nc1cccc(F)c1c2=O`, the IC50 in [1] turned out to be 6.26 µM; in [2], 6.86 µM; in data set [4], 5.45 µM; in data set [7], 12.4 µM.

As for `Cc1nn(Br)c2c1[C@@]1(C(C#N)=C(N)O2)c2ccccc2-n2c1nc1ccccc1c2=O`, the IC50 in data set [23] is 79.7 µM; in [24] it was greater than 100 µM; in [25], 48.2 µM; in data set [26], 52.4 µM.

For the compound `Cc1nn(Br)c2c1[C@@]1(C(C#N)=CO2)c2cc(-c3cccc(Cl)c3)ccc2-n2c1nc1ccccc1c2=O`, the IC50 in data set [23] is 63.8 µM; in data set [24], greater than 100 µM; in [25], 96.4 µM; in [26] it was 81.3 µM.

Consider `O=C1c2cc(C(F)(F)F)ccc2-n2c1nc1ccccc1c2=O`, for which the IC50 in [9] stood at 3.4 µM.

Turning to `O=C1c2cc(F)c(F)cc2-n2c1nc1ccccc1c2=O`, the IC50 in data set [1] is 9.84 µM; in data set [2], 3.31 µM; in [4], 2.15 µM; in [7], 10.4 µM.

As for `CCCC[C@]1(O)c2ccccc2-n2c1nc1ccccc1c2=O`, the GI50 in [20], in data set [8], in [16], in data set [21], in data set [22] and in data set [17] was greater than 100 µM each time. For the same compound, the GI50 in [18] and in [19] was greater than 100 µM throughout.

`Cc1n[nH]c2c1[C@@]1(C(C#N)=C(N)O2)c2cc(-c3ccccc3)ccc2-n2c1nc1ccccc1c2=O`: the IC50 is 97.9 µM in [23], greater than 100 µM in data set [24], greater than 100 µM in data set [25] and 72.2 µM in data set [26].

For `O=C1c2cccc(F)c2-n2c1nc1ccccc1c2=O`, the IC50 in data set [1] came to 5.89 µM; in data set [2], 3.69 µM; in data set [4], 6.45 µM; in [7] it was 7.05 µM.

As to `CN(C)c1ccc2c(c1)C(=O)c1nc3ccccc3c(=O)n1-2`, in data set [9], the IC50 came out at 9 µM.

In the case of `Cc1n[nH]c2c1[C@@]1(C(C#N)=CO2)c2cc(-c3cccc(Cl)c3)ccc2-n2c1nc1ccccc1c2=O`, the IC50 in data set [23] was 98.8 µM; in [24], greater than 100 µM; in [25] it was greater than 100 µM; in data set [26] it was 52.6 µM.

In the case of `O=C1c2c(N3CCNCC3)cccc2-n2c1nc1ccccc1c2=O`, the IC50 in data set [10] is 13.7 µM; in data set [11] it was greater than 100 µM; in data set [12], 56.1 µM; in data set [13], greater than 100 µM; in [14] it was 90 µM; in data set [15], greater than 100 µM.

In the case of `O=C1c2c(ccc(F)c2N2CCN(c3ccccn3)CC2)-n2c1nc1ccccc1c2=O`, the IC50 in data set [10], in data set [11], in data set [12], in data set [13], in data set [14] and in data set [15] was greater than 100 µM throughout.

In turn, `O=C1c2ccccc2-n2c1nc1ccc(Br)cc1c2=O` yielded an IC50 in [6] of 9 µM.

In turn, `COc1cccc2c1C(=O)c1c(O)c3c(c(O)c1C2=O)C[C@@](O)(C(=O)CO)C[C@@H]3O[C@H]1C[C@H](N)[C@H](O)[C@H](C)O1` [DOXORUBICIN] gave an IC50 in data set [6] of 0.26 µM.

As a reminder, the IC50 is the midpoint of a concentration-inhibition curve. A high value points to weaker potency. One may read the GI50 as the concentration at which growth is held to half of that of the control.
